Values after ≈ are worked out from the molar mass of the structure shown. Read-outs that look alike come from different tables or passages of the source.

Common to all, as to type: cell-based
Assay [1] concerns S. aureus N315 mutant Mt50DscA.3. Put plainly: Susceptibility (MIC) of Disciformycin A-resistant mutant. Conditions: Staphylococcus aureus.
For assay [2], the system named is S. aureus Newman in PMA-differentiated human THP-1 cell line (macrophages). The assay can be described thus: Intra-macrophage activity. To be noted: at 8×MIC, 18 h, MOI 10, cfu counting. From the text:
The PMA-differentiated human THP-1 cell line (macrophages) was used as cellular host for infection with S. aureus Newman at an MOI (multiplicity of infection) of 10. […] Intracellular bacteria were recovered and serial dilutions were streaked out on CASO-Agar for cfu counting. The reference drug rifampicin reduced the number of intracellular bacteria by ca. 4 logs (at 8×MIC).

In assay [3] the test system is S. aureus N315 mutant Mt50DscA.10. The assay can be described thus: Susceptibility (MIC) of Disciformycin A-resistant mutant. Conditions: Staphylococcus aureus.
In assay [4] the test system is S. aureus N315 mutant Mt50DscA.6. Described as above. To be noted: Staphylococcus aureus.
Assay [5] deals with S. aureus N315 mutant Mt50DscA.5. Described as above. Conditions: Staphylococcus aureus.
Assay [6] relates to S. aureus N315 mutant Mt50DscA.1. Described as above. To be noted: Staphylococcus aureus.
The test system of assay [7] is S. aureus N315 mutant Mt50DscA.11. Described as above. Conditions: Staphylococcus aureus.
In assay [8] the test system is S. aureus N315 wildtype (WT). Put plainly: Susceptibility (MIC) of S. aureus N315 wildtype. To be noted: Staphylococcus aureus.
Assay [9] has as its system S. aureus N315 mutant Mt50DscA.2. The assay can be described thus: Susceptibility (MIC) of Disciformycin A-resistant mutant. To be noted: Staphylococcus aureus.
Assay [10] concerns S. aureus N315 Mt50DscA.9. The assay is described as above. Conditions: Staphylococcus aureus.
Assay [11] relates to S. aureus N315 mutant Mt50DscA.8. The assay is described as above. To be noted: Staphylococcus aureus.
The test system of assay [12] is S. aureus N315 mutant Mt50DscA.4. Described as above. To be noted: Staphylococcus aureus.
Assay [13] deals with Staphylococcus aureus (MRSA) DSM-11822. Put plainly: MIC by microbroth dilution. To be noted: Staphylococcus aureus, 16 h. Here is the method: Bacterial strains. Bacterial wildtype strains used in susceptibility assays were either part of HZI's strain collection or purchased from the German Collection of Microorgansims and Cell Cultures (Deutsche Sammlung von Mikroorganismen und Zellkulturen, DSMZ).
Minimum inhibitory concentration (MIC) was determined by microbroth dilution. In brief, overnight cultures of bacteria (EBS medium) were diluted to OD600 0.01. Disciformycin A (1) or B (2) dissolved in DMSO was added directly to the cultures in 96-well plates (Sarstedt, flat bottom) in duplicate and the compound was tested in serial dilution. […] After 16 h incubation at 900 rpm and 30° C. on a microplate shaker (Titramax, Heidolph) absorbance at 600 nm was measured using a microplate reader (POLARstar Omega, BMG Labtech). MIC values were determined by sigmoidal curve fitting.
On the technique in general: Broth dilution looks for growth in wells or tubes with falling amounts of substance.

`CO[C@H]1/C=C/O[C@@]2(C)Oc3c(C)c(O)c4c(O)c(c(/C=N/N5CCN(C)CC5)c(O)c4c3C2=O)NC(=O)/C(C)=C\C=C\[C@H](C)[C@H](O)[C@@H](C)[C@@H](O)[C@@H](C)[C@H](OC(C)=O)[C@@H]1C` [rifampicin, reference compound]: the MIC (commonly the lowest concentration found to suppress growth) is 3 ng/mL (≈ 3.65 nM) in [1]; 1 ng/mL (≈ 1.22 nM) in assay [3]; 1 ng/mL (≈ 1.22 nM) in assay [4]; 1 ng/mL (≈ 1.22 nM) in assay [5]; 3 ng/mL (≈ 3.65 nM) in [6]; 1 ng/mL (≈ 1.22 nM) in assay [7]. For the same compound, the MIC in [8] (S. aureus N315 WT, read-out: MIC) was 3 ng/mL (≈ 3.65 nM); in [9] it was 5 ng/mL (≈ 6.08 nM); in assay [10], 1 ng/mL (≈ 1.22 nM); in [11], 1 ng/mL (≈ 1.22 nM); in assay [12], 1 ng/mL (≈ 1.22 nM). Also, the “reduction of the number of intracellular bacteria” value in assay [2] was “ca. 4 logs”.

With `C/C=C(/C)[C@H]1C/C=C(\C)[C@@H](O[C@H]2O[C@H](CO)[C@@H](O)[C@@H]2O)[C@H](OC(=O)CC(C)C)C(=O)C[C@@H](OC)[C@H](C)C(=O)O1` [Compound 5, disciformycin C], the MIC in [1] is greater than 64000 ng/mL; in assay [4] it was greater than 64000 ng/mL; in assay [5] it was 32000 ng/mL (≈ 57500 nM); in assay [6], greater than 64000 ng/mL; in assay [8], 4000 ng/mL (≈ 7190 nM).

In assay [13], `CN[C@H](CC(C)C)C(=O)N[C@H]1C(=O)N[C@@H](CC(N)=O)C(=O)N[C@H]2C(=O)N[C@H]3C(=O)N[C@H](C(=O)N[C@H](C(=O)O)c4cc(O)cc(O)c4-c4cc3ccc4O)[C@H](O)c3ccc(c(Cl)c3)Oc3cc2cc(c3O[C@@H]2O[C@H](CO)[C@@H](O)[C@H](O)[C@H]2O[C@H]2C[C@](C)(N)[C@H](O)[C@H](C)O2)Oc2ccc(cc2Cl)[C@H]1O` [Vancomycin, reference compound] returned an MIC of 830 ng/mL (≈ 573 nM).

For the compound `C/C=C(/C)[C@H]1C/C=C(\C)[C@@H](O[C@H]2O[C@H](CO)[C@@H](O)[C@@H]2O)[C@H](OC(=O)CC(C)C)C(=O)C[C@@H](SC)[C@H](C)C(=O)O1` [Compound 6, disciformycin D], the MIC in [1] is 64000 ng/mL (≈ 112000 nM); in assay [4] it was 32000 ng/mL (≈ 55900 nM); in assay [5], 4000 ng/mL (≈ 6980 nM); in [6], 32000 ng/mL (≈ 55900 nM); in [8], 500 ng/mL (≈ 873 nM).
